Structures can show the parent of a compound that is named as a salt. Where two headings read alike, the source gives them in different places.
Legend:
human CaSR = molecular target: T1, human CaSR (Homo sapiens, UniProt P41180); experiment: Human CaSR activity measurement test (intracellular calcium in TT cells); type: cell-based; conditions: [EC50 of test compound]/[EC50 of Compound A], intracellular calcium fluorescence
T1 construct: TT cells are cell lines that express human CaSR; endogenous in cells; host or cells: TT cells (human medullary thyroid carcinoma cell line)
T1 sequence (P41180 20-1078): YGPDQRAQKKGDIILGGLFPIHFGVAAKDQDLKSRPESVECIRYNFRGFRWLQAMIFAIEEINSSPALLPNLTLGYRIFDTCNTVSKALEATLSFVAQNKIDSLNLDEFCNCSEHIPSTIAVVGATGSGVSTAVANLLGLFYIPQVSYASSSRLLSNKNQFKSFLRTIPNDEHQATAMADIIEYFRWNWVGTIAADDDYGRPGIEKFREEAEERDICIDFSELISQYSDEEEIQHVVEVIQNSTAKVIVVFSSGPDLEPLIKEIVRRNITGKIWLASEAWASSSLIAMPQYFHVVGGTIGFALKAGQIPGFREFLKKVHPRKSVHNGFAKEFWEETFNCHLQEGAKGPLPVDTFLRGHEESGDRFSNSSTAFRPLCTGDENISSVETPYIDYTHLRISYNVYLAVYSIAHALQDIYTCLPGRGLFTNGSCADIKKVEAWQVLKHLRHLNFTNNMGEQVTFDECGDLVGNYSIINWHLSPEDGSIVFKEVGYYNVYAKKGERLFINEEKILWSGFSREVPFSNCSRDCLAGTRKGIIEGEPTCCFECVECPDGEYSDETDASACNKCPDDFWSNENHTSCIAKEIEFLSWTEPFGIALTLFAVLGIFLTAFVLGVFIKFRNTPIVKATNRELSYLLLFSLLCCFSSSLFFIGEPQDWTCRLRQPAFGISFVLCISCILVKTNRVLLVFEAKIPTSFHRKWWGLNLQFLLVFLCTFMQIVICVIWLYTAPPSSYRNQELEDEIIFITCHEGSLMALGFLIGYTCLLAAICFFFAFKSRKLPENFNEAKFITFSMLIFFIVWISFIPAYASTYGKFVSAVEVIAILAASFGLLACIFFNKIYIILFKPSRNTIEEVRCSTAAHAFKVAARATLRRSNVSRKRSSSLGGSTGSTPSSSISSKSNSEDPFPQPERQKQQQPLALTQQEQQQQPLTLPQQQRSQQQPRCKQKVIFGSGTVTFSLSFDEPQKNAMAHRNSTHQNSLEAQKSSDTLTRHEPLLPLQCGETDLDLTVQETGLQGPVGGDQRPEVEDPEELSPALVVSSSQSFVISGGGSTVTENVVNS
Description: It is reported that human medullary thyroid carcinoma cell lines TT cells are cell lines that express human CaSR, and when CaSR is activated by extracellular calcium ions or the like, intracellular calcium ion concentration increases (Endocrinology 137: 3842-3848, 1996). Accordingly, an activating action of the test compounds with respect to human CaSR was evaluated by using the change in intracellular calcium concentration of TT cells as an indicator. TT cells were inoculated onto a black well/clear bottom 96 well plate (poly-D-lysine coat: manufactured by BD biosciences), and were cultured for approximately 24 hours in a F-12 Nutrient Mixture (Kaighn's modification) culture media containing 10% calf serum and 0.5% antibiotic antimycotic. […] Then, the plate was allowed to stand for 1 hour at 37° C. Subsequently, the above-mentioned plate was placed onto FlexStation (manufactured by Molecular Device) or FlexStation 3 (manufactured by Molecular Device), and fluorescence intensity before and after treatment with the test compound dissolved in a buffer for measurement (126 mM NaCl, 4 mM KCl, 1 mM MgCl2, 20 mM HEPES (pH 7.4), 5.6 mM glucose, 2 mM CaCl2) was measured. […] Nagano, Pharmacol. […] WO 1996/12697) as a comparative compound, by conducting a similar procedure. From the following equation, the human CaSR activity of each of the test compounds was calculated as the relative activity with respect to Compound A. Relative activity with respect to Compound A=[EC50 of test compound]/[EC50 of Compound A]

[1] = test system: calcium ion concentration in the blood; experiment: Measurement test for concentration of parathyroid hormone and calcium ion in rat blood; type: in vivo; conditions: read-out: reduction of calcium concentration in the blood
Description: Three male SD rats (manufactured by Japan SLC, Inc.) were orally administered with the test compound, and effects on the concentration of parathyroid hormone (PTH) in the blood and concentration of the calcium ion in the blood were studied.
The test compound was administered by dissolving or suspending it in a 0.5% methyl cellulose 400 (MC) solution or 0.5% MC solution containing 10% of ethanol. (In addition, Compound A used in Test Example 1 was administered as a MC suspension by dosage of 30 mg/kg, and was studied as a comparative example.) Blood was collected from the jugular vein under anesthesia with halothane or isoflurane, before administration of the test compound, and 2, 4, 6 or 8 and 24 hours after administration. Calcium ion concentration in the blood was measured using cartridge EG7+(manufactured by Fuso Chemical Co., Ltd.) and i-STAT 300F (manufactured by Fuso Chemical Co., Ltd.). In addition, plasma intact PTH concentration was measured using Rat intact PTH ELISA kit (manufactured by Immutopics).
The transition of calcium ion concentration in the blood over time from before administration to 24 hours after administration of each of the test compounds was plotted, and the decrease in calcium ion concentration in the blood from the value before administration was calculated as an area value.

[2] = male SD rats, oral, 10 mg/kg, 4 hours after administration
[3] = male SD rats, oral, 4 hours after administration

C[C@@H](N[C@H]1CC[C@@H](c2ccc(OC(C)(C)C(=O)O)cc2)C1)c1cccc2ccccc12 [Example 11, 2-Methyl-2-{4-[(1R,3S)-3-{[(1R)-1-(naphthalen-1-yl)ethyl]amino}cyclopentyl]phenoxy}propanoic acid hydrochloride]
Relative activity with respect to Compound A (human CaSR): 0.60 | inhibition in vivo at 10 mg/kg [1, 2]: ≥ 30%

C[C@@H](N[C@H]1CC[C@@H](c2ccc(OCC(=O)O)cc2)C1)c1ccc(F)c2ccccc12 [Example 17, {4-[(1R,3S)-3-{[(1R)-1-(4-Fluoronaphthalen-1-yl)ethyl]amino}cyclopentyl]phenoxy}acetic acid]
Relative activity with respect to Compound A (human CaSR): 0.30 | inhibition in vivo at 0.3 mg/kg [1, 3]: ≥ 20% | inhibition in vivo at 10 mg/kg [1, 2]: ≥ 30%

C[C@@H](N[C@H]1CC[C@H](c2ccc(OCC(=O)O)cc2)C1)c1ccc(F)c2ccccc12 [Example 28, {4-[(1S,3S)-3-{[(1R)-1-(4-Fluoronaphthalen-1-yl)ethyl]amino}cyclopentyl]phenoxy}acetic acid]
Relative activity with respect to Compound A (human CaSR): 0.17 | inhibition in vivo at 0.3 mg/kg [1, 3]: ≥ 20%

C[C@@H](NC1CC[C@@H](c2ccc(OCC(=O)O)cc2)C1)c1ccc(F)c2ccccc12 (mixture of isomers) [Example 16, {4-[(1R)-3-{[(1R)-1-(4-Fluoronaphthalen-1-yl)ethyl]amino}cyclopentyl]phenoxy}acetic acid]
Relative activity with respect to Compound A (human CaSR): 0.72 | inhibition in vivo at 10 mg/kg [1, 2]: ≥ 30%

C[C@@H](N[C@H]1CC[C@@H](c2cccc(OCC(=O)O)c2)C1)c1cccc2ccccc12 [Example 12, {3-[(1R,3S)-3-{[(1R)-1-(Naphthalen-1-yl)ethyl]amino}cyclopentyl]phenoxy}acetic acid hydrochloride]
Relative activity with respect to Compound A (human CaSR): 0.36

Cc1cc([C@@H]2CC[C@H](N[C@H](C)c3cccc4ccccc34)C2)ccc1OCC(=O)O [Example 32, {2-Methyl-4-[(1R,3S)-3-{[(1R)-1-(naphthalen-1-yl)ethyl]amino}cyclopentyl]phenoxy}acetic acid hydrochloride]
Relative activity with respect to Compound A (human CaSR): 0.26

C[C@@H](N[C@H]1CC[C@@H](c2ccc(NCC(=O)O)cc2)C1)c1ccc(F)c2ccccc12 [Example 35, N-{4-[(1R,3S)-3-{[(1R)-1-(4-Fluoronaphthalen-1-yl)ethyl]amino}cyclopentyl]phenyl}glycine 0.3 hydrochloride]
inhibition in vivo at 10 mg/kg ([1]; po, 4 h): ≥ 30%

C[C@@H](N[C@H]1CC[C@H](c2ccc(CCC(=O)O)cc2)C1)c1cccc2ccccc12 [Example 29, 3-{4-[(1S,3S)-3-[(1R)-1-(4-Naphthalen-1-yl)ethyl]amino}cyclopentyl]phenyl}propanoic acid hydrochloride]
Relative activity with respect to Compound A (human CaSR): 0.30

C[C@@H](N[C@H]1CC[C@@H](c2ccc(-c3nn[nH]n3)cc2)C1)c1ccc(F)c2ccccc12 [Example 26, (1S,3R)-N-[(1R)-1-(4-Fluoronaphthalen-1-yl)ethyl]-3-[4-(2H-tetrazol-5-yl)phenyl]cyclopentanamine hydrochloride]
Relative activity with respect to Compound A (human CaSR): 0.27

C[C@@H](N[C@H]1CC[C@@H](c2ccc(CCC(=O)O)cc2)C1)c1cccc2ccccc12 [Example 9, 3-{4-(1R,3S)-3-{[(1R)-1-(Naphthalen-1-yl)ethyl]amino}cyclopentyl]phenyl}propanoic acid hydrochloride]
Relative activity with respect to Compound A (human CaSR): 0.38

C[C@@H](NC1CC[C@H](c2ccc(-c3nn[nH]n3)cc2)C1)c1cccc2ccccc12 (stereo partly drawn) [Example 4, (3S)-N-[(1R)-1-(Naphthalen-1-yl)ethyl]-3-[4-(2H-tetrazol-5-yl)phenyl]cyclopentanamine hydrochloride]
Relative activity with respect to Compound A (human CaSR): 0.33

C[C@@H](N[C@H]1CC[C@@H](c2ccc(SCC(=O)O)cc2)C1)c1ccc(F)c2ccccc12 [Example 37, ({4-[(1R,3S)-3-{[(1R)-1-(4-Fluoronaphthalen-1-yl)ethyl]amino}cyclopentyl]phenyl}thio)acetic acid hydrochloride]
Relative activity with respect to Compound A (human CaSR): 0.10

C[C@@H](N[C@H]1CC[C@@H](c2ccc(OCc3nn[nH]n3)cc2)C1)c1cccc2ccccc12 [Example 38, (1S,3R)-N-[(1R)-1-(Naphthalen-1-yl)ethyl]-3-[4-(2H-tetrazol-5-ylmethoxy)phenyl]cyclopentanamine hydrochloride]
Relative activity with respect to Compound A (human CaSR): 0.13

C[C@@H](N[C@H]1CC[C@@H](c2ccc(C(=O)NCC(=O)O)cc2)C1)c1cccc2ccccc12 [Example 5, N-{4-[(1R,3S)-3-{[(1R)-1-(Naphthalen-1-yl)ethyl]amino}cyclopentyl]benzoylglycine hydrochloride]
Relative activity with respect to Compound A (human CaSR): 0.52

C[C@@H](N[C@H]1CC[C@@H](c2ccc(OCC(=O)O)cc2)C1)c1ccc(F)c2cc(F)ccc12 [Example 23, {4-[(1R,3S)-3-{[(1R)-1-(4,6-Difluoronaphthalen-1-yl)ethyl]amino}cyclopentyl]phenoxy}acetic acid]
inhibition in vivo at 0.3 mg/kg [1, 3]: ≥ 20%

C[C@@H](N[C@H]1CC[C@@H](c2cccc(-c3nn[nH]n3)c2)C1)c1cccc2ccccc12 [Example 1, (1S,3R)-N-[(1R)-1-(Naphthalen-1-yl)ethyl]-3-[3-(2H-tetrazol-5-yl)phenyl]cyclopentanamine hydrochloride]
Relative activity with respect to Compound A (human CaSR): 0.30

C[C@@H](N[C@H]1CC[C@@H](c2ccc(OCc3nn[nH]n3)cc2)C1)c1ccc(F)c2ccccc12 [Example 39, (1S,3R)-N-[(1R)-1-(4-Fluoronaphthalen-1-yl)ethyl]-3-[4-(2H-tetrazol-5-ylmethoxy)phenyl]cyclopentanamine hydrochloride]
Relative activity with respect to Compound A (human CaSR): 0.07

Cc1ccc([C@@H](C)NC2CC[C@@H](c3ccc(OCC(=O)O)cc3)C2)c2ccccc12 (stereo partly drawn) [Example 22, {4-[(1R)-3-{[(1R)-1-(4-Methylnaphthalen-1-yl)ethyl]amino}cyclopentyl]phenoxy}acetic acid]
Relative activity with respect to Compound A (human CaSR): 0.42

C[C@@H](NCCCc1cccc(C(F)(F)F)c1)c1cccc2ccccc12 [Compound A, ((R)-1-naphthalen-1-yl-ethyl)-[3-(3-trifluoromethyl-phenyl)-propyl]-amine monohydrochloride, reference compound]
inhibition in vivo at 30 mg/kg ([1]; male SD rats, oral, 30 mg/kg, 4 hours after administration): 15 to 30%

From patent US9133140B2, “Cycloalkylamne derivatives” (Daiichi Sankyo Company, Limited, priority 2008, dated 2015)
